Data as given in US20090047704A1, “Combination of a Histological or Cytological Fixing Agent and One or More Photoactivatable Compounds of the Quinone Family, In Particular Hypericin, Hypocrellin A and Hypocrellin B” (NOVACYT, priority 2005, published 2009).
“Also recorded” adds a separate entry of the source.

Assays:
Assay type in all cases: cell-based
Human glioblastoma cells = assay: Microspectrofluorometer comparison of hypericin fluorescence in living versus fixed glioblastoma cells; settings: 2 micromoles per ml hypericin in Sakomano cytological fixing agent, one hour
Protocol: Human glioblastoma cells are cultivated in a petri dish. Hypericin is placed in suspension in a solution of Sakomano cytological fixing agent, with a concentration of 2 micromoles per ml, four hours before the experiments. The fixing agent solution comprising hypericin is shielded from light. The cells of the glioblastoma are directly fixed by placing them in the solution of fixing agent prepared based on hypericin for one hour. Comparative tests are carried out using a microspectrofluorometer in order to compare the level of intensity of fluorescence and the quality of the fluorescence spectrum measured in cultures of identical living glioblastoma cells, incubated at the same concentration for one hour in the solution of Sakomano cytological fixing agent containing hypericin, and the fixed cells.

[1] = system: normal epithelial cells from a cervical smear; assay: Microspectrofluorometer measurement of hypericin marking in a fixed mixed cell suspension, normal cells; settings: Sakomano fixing agent, 2 μm/ml, one hour, shielded from light
Source text: (§1) Cells from a line of epidermoid malphigian carcinoma of the cervix, of the type HeLa, are cultivated in a petri dish. They are then fixed in a cytological fixing agent of the Sakomano type which already includes normal epithelial cells from a cervical smear in order to verify the affinity of hypericin for the tumorous cells in a cell suspension containing several types of normal cells and tumorous cells. Hypericin is then placed in suspension for one hour in the cell suspension fixed at a concentration of 2 μm/ml and shielded from light. Tests are carried out using a microspectrofluorometer in order to compare the level of intensity of fluorescence and the quality of the fluorescence spectrum measured for the different cells of the suspension, incubated at the same concentration for one hour in the solution of Sakomano cytological fixing agent containing hypericin.

tumorous HeLa cells = assay: Microspectrofluorometer measurement of hypericin marking in a fixed mixed cell suspension, tumorous cells; settings: Sakomano fixing agent, 2 μm/ml, one hour, shielded from light
Source text: as §1

tumorous cells = assay: Incorporation of hypericin by tumorous cells suspended in fixing agent solution; settings: tumorous cells in suspension in fixing agent solution containing micromolar measures of hypericin
Source text: Since the liquid phase of the cell suspension practically no longer contains hypericin, it is possible to carry out a direct analysis of the cells (morphological and/or fluorescence emission analysis) without rinsing the cell suspension. This property therefore allows the cell/tissue preparation and the analysis of the cells to be automated.

For `Cc1cc(O)c2c(=O)c3c(O)cc(O)c4c5c(O)cc(O)c6c(=O)c7c(O)cc(C)c8c1c2c(c34)c(c78)c65` [hypericin, 1,3,4,6,8,13-hexahydroxy-10,11-dimethylphenanthro(1,10,9,8,opqra)perylene-7,14-dione], the “fluorescence spectrums, living cells versus fixed cells” value (Human glioblastoma cells) was “can be completely superimposed”, the “levels of intensity of the fluorescence, living cells versus fixed cells” value (Human glioblastoma cells) was “identical” and the “affinity of hypericin for normal cells” value [1] was “very low level of affinity; also recorded: low level of affinity”. For the same compound, the “localisation of hypericin in normal cells” value [1] was “peripheral localisation in the region of the cell membrane”, the “affinity of hypericin for tumorous cells” value (tumorous HeLa cells) was “great affinity” and the “localisation of hypericin in tumorous cells” value (tumorous HeLa cells) was “preferential perinuclear localisation; also recorded: very specific preferential perinuclear localisation”. For the same compound, the “incorporation of hypericin by the cells” value (tumorous cells) was “almost all of the hypericin is incorporated by the cells”.
